Target: T1, FPRL-1 (Homo sapiens, UniProt P25090)
T1 construct: expressed in transfected cells
T1 sequence (P25090 1-351): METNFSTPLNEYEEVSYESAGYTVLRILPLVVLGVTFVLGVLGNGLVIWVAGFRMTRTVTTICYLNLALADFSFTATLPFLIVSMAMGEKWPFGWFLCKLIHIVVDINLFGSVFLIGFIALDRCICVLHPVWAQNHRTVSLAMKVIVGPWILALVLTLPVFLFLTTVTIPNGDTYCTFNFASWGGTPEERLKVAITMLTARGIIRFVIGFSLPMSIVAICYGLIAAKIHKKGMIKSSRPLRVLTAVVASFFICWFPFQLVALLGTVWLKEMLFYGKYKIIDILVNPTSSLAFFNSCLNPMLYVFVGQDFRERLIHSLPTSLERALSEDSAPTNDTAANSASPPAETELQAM
Assay: FLIPR Tetra calcium activity assay in CHO-Ga16 cells stably expressing FPRL1
Type: cell-based
Settings: compound-induced calcium activity; for EC50: 0.61 to 10,000 nM; for FPRL-1 Ga16-CHO (eff) efficacy: efficacy value in parentheses
Protocol: CHO-Ga16 cells stably expressing FPRL1 were cultured in (F12, 10% FBS, 1% PSA, 400 μg/ml geneticin and 50 μg/ml hygromycin) and HEK-Gqi5 cells stable expressing FPR1 were cultured in (DMEM high glucose, 10% FBS, 1% PSA, 400 μg/ml geneticin and 50 μg/ml hygromycin). In general, the day before the experiment, 18,000 cells/well were plated in a 384-well clear bottom poly-d-lysine coated plate. The following day the screening compound-induced calcium activity was assayed on the FLIPR^Tetra. The drug plates were prepared in 384-well microplates using the EP3 and the MultiPROBE robotic liquid handling systems. Compounds were tested at concentrations ranging from 0.61 to 10,000 nM. Results are expressed as EC50 (nM) and efficacy values.

Row | EC50 [nM] | FPRL-1 Ga16-CHO (eff) efficacy | Structure (SMILES)
1 | 91 | 0.79 | COc1cc2c(cc1OC)CN(C(=O)C(CCCCNC(=O)Nc1ccccc1)NC(=O)Nc1ccc(Br)cc1)CC2 (centres unmarked) [Compound 2]
2 | 32 | 0.76 | COc1cc2c(cc1OC)CN(C(=O)C(CCCCNC(=O)Nc1ccccc1)NC(=O)Nc1ccc(SC)cc1)CC2 (centres unmarked) [Compound 3]
3 | 143 | 0.61 | COc1cc2c(cc1OC)CN(C(=O)C(CCCCNC(=O)c1ccco1)NC(=O)Nc1ccc(C)cc1)CC2 (centres unmarked) [Compound 1]
4 | 59 | 0.71 | COc1cc2c(cc1OC)CN(C(=O)C(CCCCNC(=O)NC1CCCCC1)NC(=O)Nc1ccc(SC)cc1)CC2 (centres unmarked) [Compound 4]
